# In article PMC4253628, “Antiviral effects against EV71 of pimprinine and its derivatives isolated from Streptomyces sp” (Virology Journal, 2014):
# What was measured:
# [1] = Cytotoxicity, MTT method, uninfected RD cells; format: cell-based; settings: human; RD cells, MTT, 48 h; mean ± SD of three experiments; read-out: CC50, compound concentration required to reduce cell viability by 50%
# Method: (§1) The 50% cell cytotoxic concentrations (CC50s) of compounds were calculated using SPSS software. SI were calculated from the ratio of CC50: EC50.
# EV71 [2] = settings: EV71, RD cells
# Method: (§3) Cell viability was assessed by an MTT assay, which functions based on the reduction of a MTT into formazan dye by active mitochondria. The cells were treated with 100 μL of MTT (1 mg/mL, Sigma) and incubated at 37°C for 4 h. The reaction was blocked by DMSO and measured in a microplate reader (Bio-Tek Instruments) at 492 nm. The untreated control was arbitrarily set as 100%.
# (§4) Confluent cell monolayers in 96-well dishes were infected with 100 TCID50 of corresponding virus dilution mixed with serial dilutions of tested compounds for 1 h at 37°C. Inocula were aspirated and the cells were then incubated with various concentrations of DMEM/tested compounds at 37°C, 5% CO2 for 48 h. CPE were observed microscopically and the viability of the cells was determined using MTT assays. […] The concentrations required for the tested compounds to achieve 50% protection of cells from virus-induced CPE were determined.
# HSV-1 [3] = experiment: Virus yield reduction assay, HSV-1; format: cell-based, herpes simplex virus 1; settings: Hep-2 cells; — = less than 90% inhibition
# [4] = Cytotoxicity, MTT method, MDCK cells; format: cell-based, canine; settings: dog, uninfected MDCK cells, host cells of H1N1: MDCK
# Method: as §1
# HSV-1 [5] = experiment: Plaque reduction assay, HSV-1 in Hep-2 cells; settings: for EC50: Human alphaherpesvirus 1, HEp-2, read-out: EC50 HSV-1
# Method: Confluent monolayers of Hep-2 cells, seeded in a 24-well plate, were infected with HSV-1 at a density of 60–80 plaque-forming units (PFU) per well and treated with media (pre-warmed DMEM containing 2% FBS, 0.8% low-melting agarose) mixed with or without the serially diluted tested compounds for the periods indicated following different procedures. The cells were incubated at 37°C until plaques appeared, followed by fixing with 10% formaldehyde and staining with 0.5% crystal violet. The plaques were counted by visual examination. The ratio of the number of plaques in the treated group to that in the untreated control was calculated.
# A plaque reduction assay was performed to measure the inhibitory effects of the test compounds against HSV-1 infection.
# [6] = Cytotoxicity, MTT method, HeLa cells; format: cell-based; settings: human, uninfected HeLa cells; host cells of ADV-7: HeLa, MTT, 48 h; read-out: CC50 (ADV-7)
# Method: as §1
# H1N1 [7] = experiment: Virus yield reduction assay, H1N1; format: cell-based, influenza virus A/human/Hubei/86/2009 (H1N1); settings: MDCK cells; — = less than 90% inhibition
# Method: Virus yield reduction assays were also carried out to evaluate further the protective effects of the tested compounds.
# The virus suspension, serially diluted 10-fold with DMEM containing 2% FBS, was inoculated to cells in a 96-well plate. After 1 h incubation at 37°C in 5% CO2, unbinding virus was washed out and DMEM maintenance medium supplemented with 2% FBS was added to the cells. After 2 days, the infected cells were monitored for cytopathic effects (CPEs). The virus titer was calculated by the Reed–Muench method.
# EV71 [8] = experiment: Progeny virus yield reduction, EV71 in RD cells; format: cell-based, Enterovirus 71; settings: for reduction in progeny virus titers relative to virus control: 80 μM, 100 TCID50 EV71, RD cells, 10 h; for EC90: Enterovirus A, EV71, RD cells, progeny viral yield, read-out: EC90, compound concentration required to achieve 90% virus yield reduction
# [9] = Cytotoxicity, ATPLite luminescence-based assay, Hep-2 cells; format: cell-based; settings: human
# Excerpt: (§2) The ATPLite assay may be more sensitive to cytotoxicity than the MTT method. For RD and Hep-2 cells, similar results were obtained, and for HeLa and MDCK cells, the values of CC50 from the ATPLite assay were smaller than those from MTT assays (Tables 1, 2 and 3).
# ADV-7 [10] = experiment: Virus yield reduction assay, ADV-7; format: cell-based, adenovirus 7; settings: Human mastadenovirus B; HeLa cells; read-out: EC90 ADV-7, concentration required to inhibit 90% virus yield
# [11] = Cytotoxicity, ATPLite luminescence-based assay, RD cells; format: cell-based; settings: human
# Excerpt: as §2
# H1N1 [12] = experiment: Inhibition of H1N1-induced CPE in MDCK cells; format: cell-based, influenza virus A/human/Hubei/86/2009 (H1N1)
# CVB3 [13] = experiment: Virus yield reduction assay, CVB3; format: cell-based, Coxsackievirus B3; settings: Hep-2 cells, — = less than 90% inhibition
# EV71 [14] = experiment: microbe, parasite or virus in culture; settings: Enterovirus A, EV71, RD, 48 h, read-out: EC50, compound concentration required to achieve 50% protection from virus-induced cytopathogenicity
# Method: as §3, §4
# EV71 [15] = experiment: Dependence of anti-EV71 activity on virus inoculum (cell viability, MTT) in RD cells; format: cell-based, Enterovirus 71; settings: for anti-EV71 inhibition at excessive virus inoculum: virus concentration above 10^4 TCID50
# ADV-7 [16] = experiment: Inhibition of ADV-7-induced CPE in HeLa cells; settings: for SI ADV-7, ratio CC50/EC50: HeLa cells; for EC50: Human mastadenovirus B, HeLa, 48 h, read-out: EC50 ADV-7
# Method: as §3, §4
# [17] = design: method as in PMID 11377760; settings: in vivo, 80 mg/kg; cited from earlier work
# [18] = Cytotoxicity, MTT method, Hep-2 cells; format: cell-based; settings: human, uninfected Hep-2 cells; host cells of CVB3: Hep-2, MTT, 48 h; read-out: CC50 (CVB3)
# Method: as §1
# [19] = Cytotoxicity, ATPLite luminescence-based assay, HeLa cells; format: cell-based; settings: human
# Excerpt: as §2
# CVB3 [20] = experiment: Inhibition of CVB3-induced CPE in Hep-2 cells; settings: for EC50: Enterovirus B, CVB3, HEp-2, 48 h, read-out: EC50 CVB3; for SI CVB3, ratio CC50/EC50: Hep-2 cells
# Method: as §3, §4
# [21] = Cytotoxicity, ATPLite luminescence-based assay, MDCK cells; format: cell-based, canine; settings: dog
# Excerpt: as §2
# EV71 [22] = experiment: Effective stage analysis, EV71 in RD cells; format: cell-based, Enterovirus 71; settings: 48 h
# EV71 [23] = experiment: Virucidal activity against EV71; format: cell-based, Enterovirus 71; settings: 80 μM pimprinethine, 40 μM WS-30581 A or 40 μM WS-30581 B; 24 h at 4°C; 10^3 TCID50
# EV71 [24] = experiment: Release analysis, EV71 from RD cells; format: cell-based, Enterovirus 71; settings: 80 μM pimprinethine, 40 μM WS-30581 A or B; 12 h p.i.
# [25] = design: method as in PMID 6501088; settings: ddY mice, intraperitoneal injection; cited from earlier work
# EV71 [26] = experiment: Adsorption analysis, EV71 on RD cells; format: cell-based, Enterovirus 71; settings: 160 μM pimprinethine, 80 μM WS-30581 A, 80 μM WS-30581 B; EV71 10^4 TCID50; 2 h adsorption
compound,measurement,setting,value
"Cc1ncc(-c2c[nH]c3ccccc23)o1 [Pimprinine, 5, 30-indolyl-2-methyloxazole]",CC50 at 48 h,[1],1460 ± 27 µM
same,"SI (selectivity index), ratio CC50/EC50",EV71 [2],16
same,"EC90 HSV-1, concentration required to inhibit 90% virus yield",HSV-1 [3],"— (—, less than 50% or 90% inhibition)"
same,CC50 at 48 h,[4],899 ± 56 µM
same,"SI HSV-1, ratio CC50/EC50",HSV-1 [5]; Hep-2 cells,3
same,EC50,HSV-1 [5],160 ± 18 µM
same,CC50 at 48 h,[6],1140 ± 181 µM
same,"EC90 H1N1, concentration required to inhibit 90% virus yield",H1N1 [7],"— (—, less than 50% or 90% inhibition)"
same,reduction in progeny virus titers relative to virus control,EV71 [8],approximately 0.5 log
same,EC90,EV71 [8],149 ± 12 µM
same,CC50,[9],403 ± 53 µM
same,EC90,ADV-7 [10],266 ± 14 µM
same,CC50,[11],1260 ± 247 µM
same,inhibition of H1N1 infection,H1N1 [12]; MDCK cells,negligible measurable inhibition
same,EC50 H1N1,"H1N1 [12]; MDCK cells, 100 TCID50, 48 h, CPE, — = less than 50% inhibition","— (—, less than 50% or 90% inhibition)"
same,"EC90 CVB3, concentration required to inhibit 90% virus yield",CVB3 [13],"—^f (—, less than 50% or 90% inhibition)"
same,EC50,EV71 [14],89 ± 18 µM
same,viability at 10 µM,"EV71 [15]; Enterovirus A, 10 μM, 10^4 TCID50 EV71, 48 h pi",7%
same,viability at 20 µM,"EV71 [15]; Enterovirus A, 20 μM, 10^4 TCID50 EV71, 48 h pi",19%
same,viability at 40 µM,"EV71 [15]; Enterovirus A, 40 μM, 10^4 TCID50 EV71, 48 h pi",16%
same,viability at 80 µM,"EV71 [15]; Enterovirus A, 80 μM, 10^4 TCID50 EV71, 48 h pi",22%
same,viability at 160 µM,"EV71 [15]; Enterovirus A, 160 μM, 10^4 TCID50 EV71, 48 h pi",28%
same,anti-EV71 inhibition at excessive virus inoculum,EV71 [15],no inhibition observed
same,"SI ADV-7, ratio CC50/EC50",ADV-7 [16],8
same,EC50,ADV-7 [16],150 ± 10 µM
same,protection against electrically induced convulsions,[17],significant protection
same,CC50 at 48 h,[18],443 ± 35 µM
same,CC50,[19],940 ± 219 µM
same,EC50,CVB3 [20],95 ± 16 µM
same,"SI CVB3, ratio CC50/EC50",CVB3 [20],5
same,CC50,[21],649 ± 77 µM
CCCc1ncc(-c2c[nH]c3ccccc23)o1 [WS-30581 A],CC50 at 48 h,[1],363 ± 13 µM
same,virus titer reduction vs untreated cells,"EV71 [22]; 80 μM, added post infection, EV71 100 TCID50",approximately 5.0 log
same,viability at 80 µM,"EV71 [22]; Enterovirus A, RD, added post infection (therapeutic), EV71 100 TCID50, read-out: viability rates of the infected cells",~100%
same,"SI (selectivity index), ratio CC50/EC50",EV71 [2],23
same,"EC90 HSV-1, concentration required to inhibit 90% virus yield",HSV-1 [3],"— (—, less than 50% or 90% inhibition)"
same,CC50 at 48 h,[4],212 ± 18 µM
same,"SI HSV-1, ratio CC50/EC50",HSV-1 [5]; Hep-2 cells,4
same,EC50,HSV-1 [5],18 ± 2 µM
same,inhibition of HSV-1-induced plaque formation,"HSV-1 [5]; inhibition achievable, Hep-2 cells",approximately 80%
same,CC50 at 48 h,[6],217 ± 4 µM
same,virus titers of EV71 mixture with vs without compound (virucidal activity),EV71 [23],No significant difference
same,"EC90 H1N1, concentration required to inhibit 90% virus yield",H1N1 [7],"— (—, less than 50% or 90% inhibition)"
same,reduction in progeny virus titers relative to virus control,EV71 [8],3.0 log
same,EC90,EV71 [8],26 ± 6 µM
same,EC90,ADV-7 [10],43 ± 3 µM
same,release of EV71 from RD cells,EV71 [24],unaffected
same,CC50,[11],313 ± 49 µM
same,EC50,"H1N1 [12]; Influenza A virus, H1N1, MDCK, 48 h, read-out: EC50 H1N1",38 ± 7 µM
same,"SI H1N1, ratio CC50/EC50",H1N1 [12]; MDCK cells,6
same,inhibition of H1N1 infection,H1N1 [12]; MDCK cells,less than 70%
same,EC90,"CVB3 [13]; Enterovirus B, CVB3, read-out: EC90 CVB3, concentration required to inhibit 90% virus yield",39 ± 4 µM
same,EC50,EV71 [14],16 ± 1 µM
same,acute toxicity,[25],above 250 mg/kg
same,anti-EV71 inhibition at excessive virus inoculum,EV71 [15],Inhibition was eliminated
same,"SI ADV-7, ratio CC50/EC50",ADV-7 [16],13
same,EC50,ADV-7 [16],17 ± 18 µM
same,CC50 at 48 h,[18],72 ± 8 µM
same,EC50,CVB3 [20],14 ± 4 µM
same,"SI CVB3, ratio CC50/EC50",CVB3 [20],5
same,virus titer during virus attachment (adsorption),EV71 [26],no significant decrease
